Here are results for one compound from patent US9963474B2, “Mitochondria-targeted dicarbonyl sequestering compounds” (MEDICAL RESEARCH COUNCIL, priority 2013, dated 2018).

In data set [1] the test system is RLM respiring on glutamate/malate. In words: Protection against dicarbonyl-induced respiratory depression in isolated RLM. As to conditions: 37° C. Further details: species or system rat. On the procedure:
Isolated RLM respiring on glutamate/malate were incubated with MitoG, methoxyphenylenediamine (MP) or butylTPP for 2 min, followed by 0.5 mM methylglyoxal or 5 mM glyoxal for 5 min. ADP was then added and the rate of oxygen consumption monitored at 37° C. (see FIGS. 12A & 12B). C2C12 cells were pre-treated with MitoG, methoxyphenylenediamine (MP) or butylTPP for 1 h before exposure to 1 mM methylglyoxal or 5 mM glyoxal (see FIGS. 12C & 12D). Following an overnight incubation, cell survival was determined using the MTS assay. Similar experiments were conducted in BAECs pre-treated with MitoG, MP or butylTPP. For all experiments, concentrations of methylglyoxal and glyoxal used were chosen based on results from studies conducted prior to the protection assays. In these prior studies, RLM or cells were exposed to a range of dicarbonyl concentrations, and the phosphorylating rates of respiration or cell survival were evaluated. The results of these earlier experiments are shown in insets, and dicarbonyl concentrations that had caused significant respiratory depression or cell death were chosen for use in the protection assays. Data for all groups were normalized against untreated controls. For RLM, the rate of respiration by untreated controls was taken to be 100%; for cells, cell survival of untreated controls was taken to be 100%. Results are expressed as mean±S.E. of three independent experiments. MitoG was protective against methylglyoxal-induced respiratory depression and both methylglyoxal- and glyoxal-induced cell death in C2C12 cells and BAECs. […] In FIG. 12 the symbols *, ** respectively indicate that P<0.05 or P<0.01 relative to dicarbonyl-only groups; and the symbols +, ++ respectively indicate that P<0.05 or P<0.01 relative to untreated controls.

The test system of data set [2] is C2C12 cells. Description: Cell survival, MTS assay, C2C12. The format is cell-based, mouse. As to conditions: C2C12, 24 h. Here is the method:
(A, B) RLM respiring on glutamate/malate at 37° C. were incubated with various concentrations of MitoG for 7 min in an oxygen electrode to measure coupled respiration (A) before ADP was added to measure phosphorylating respiration (B). Data are the percentage of the respiration rates of untreated controls (dashed lines). (C and D) C2C12 cells (C) or BAECs [Bovine Aortic Endothelial Cells; Cell Applications Inc, San Diego, Calif.] (D) were incubated with MitoG for 24 h and cell survival was then determined using the MTS assay. Data are expressed as a percentage of the untreated controls (dashed line). (E-H) BAECs were incubated with MitoG for 2 h at 37° C. and the cellular oxygen consumption rate (OCR) after the sequential additions of oligomycin, FCCP and antimycin A/rotenone were then measured using a Seahorse XF24 analyser. (E) OCR due to ATP synthesis, (F) OCR due to proton leak, (G) reserve capacity and (H) non-mitochondrial oxygen consumption. Results are means±S.E. of three independent experiments. *, P<0.05 or **, P<0.01 relative to untreated controls.
To assess cell viability, C2C12 cells or BAECs were seeded at a density of 10,000 cells/well and 40,000 cells/well, respectively, in 96-well plates. […] After 2 h absorbance was read at 490 nm in a plate reader (SpectraMax Plus 384, Molecular Devices). […]
On the technique in general: Tetrazolium dyes change colour on reduction, which living cells bring about.

Data set [3] is described as follows: Partition coefficients between PBS and octan-1-ol. The format is physicochemical. As to conditions: octan-1-ol/PBS, means ± SE of 3 determinations, read-out: Partition coefficient (converted). On the procedure:
RP-HPLC was performed using a Gilson 321 pump with a C18 column (Jupiter 300 Å, Phenomenex) with a Widepore C18 guard column (Phenomenex). Samples (1 ml) were injected through a 0.22 μm PVDF filter (Millex, Millipore). HPLC buffer A [0.1% TFA in water] and HPLC buffer B (90% acetonitrile and 0.1% TFA) were used and a gradient was run at 1 ml/min at room temperature as follows: 0-2 min—5% B; 2-17 min—5-100% B; 17-19 min—100% B; 19-22 min—100-5% B. Peaks were detected by absorbance at 220 nm (UV/Vis 151, Gilson) and by fluorescence (excitation and emission wavelengths of 344 and 433 nm; RF-10AXL, Shimadzu). Partition coefficients between PBS and octan-1-ol were determined as previously described.

Data set [4] in a line: Reaction rate with methylglyoxal (UV/Vis and fluorometric kinetics). As to conditions: 37° C., means±SE, n=3. Here is the method:
(A) The reactions between MitoG (100 μM) and 1,2-dicarbonyls (25 μM) at 37° C. were followed from the formation of the quinoxaline products at 345 nm. (B) Fluorimetric detection of the reaction between MitoG and methylglyoxal (40 μM each), and between MitoG and glyoxal (200 μM each) was observed by monitoring the quinoxaline products at excitation and emission wavelengths of 344 and 433 nm, respectively. The changes in fluorescence caused by MQE and QE formation was quantified from calibration curves constructed by plotting fluorescence (excitation and emission wavelengths of 344 and 433 nm, respectively) against known amounts of either quinoxaline and were linear up to at least 20 μM.
TPP-conjugated compounds were made up as 10 mM stock solutions in DMSO, flushed with argon and stored as aliquots at −20° C. […] The molar extinction coefficients were calculated from the absorbance at maximal absorption (λmax) for the compounds for solutions of known concentration. Reaction rates between MitoG and 1,2-dicarbonyls were determined from the initial linear slope over the first 30 s at the λmax for the formation of the relevant quinoxaline. Fluorescence spectra were obtained in 2.5 ml KCl buffer using a Shimadzu RF-301PC fluorimeter with slit widths of 3 nm. […]

On to `Nc1ccc(OCCCCCC[P+](c2ccccc2)(c2ccccc2)c2ccccc2)cc1N` [MitoG, (6-(3,4-Diaminophenoxy)hexyl)triphenylphosphonium chloride], for which the “protection against methylglyoxal-induced respiratory depression” value in data set [1] (0.5 mM methylglyoxal) is reported as “protected against methylglyoxal-induced respiratory depression in isolated RLM in a dose-dependent manner”. Moreover, the “protection against glyoxal-induced respiratory depression” value in data set [1] (5 mM glyoxal) is reported as “did not prevent glyoxal damage”. For the same compound, the “concentration above which cell viability decreased” value in data set [2] was “above 10 μM”. Moreover, the logD in data set [3] is 0.38. Moreover, the “rate constant for reaction with methylglyoxal” value in data set [4] stood at 19 ± 1 M⁻¹ s⁻¹.
